Source: patent US5624923A, “Tricyclic diazepine vasopressin antagonists and oxytocin antagonists” (priority 1995, dated 1997)
Blank lines part the entries; values can stand above or below the molecule they belong to.

Assays:
[1] = biological target: T1, Rat Kidney Medullary V2 Receptors (Rattus norvegicus, UniProt Q00788); test: Binding Assay to Rat Kidney Medullary V2 Receptors; conditions: for IC50: rat kidney medulla membranes, read-out: V2 IC50; for inhibition at 10 µM: rat
T1 construct: Medullary tissues from rat kidneys are dissected out; from tissue; host or cells: rat kidney medulla membranes
T1 sequence (Q00788 whole entry): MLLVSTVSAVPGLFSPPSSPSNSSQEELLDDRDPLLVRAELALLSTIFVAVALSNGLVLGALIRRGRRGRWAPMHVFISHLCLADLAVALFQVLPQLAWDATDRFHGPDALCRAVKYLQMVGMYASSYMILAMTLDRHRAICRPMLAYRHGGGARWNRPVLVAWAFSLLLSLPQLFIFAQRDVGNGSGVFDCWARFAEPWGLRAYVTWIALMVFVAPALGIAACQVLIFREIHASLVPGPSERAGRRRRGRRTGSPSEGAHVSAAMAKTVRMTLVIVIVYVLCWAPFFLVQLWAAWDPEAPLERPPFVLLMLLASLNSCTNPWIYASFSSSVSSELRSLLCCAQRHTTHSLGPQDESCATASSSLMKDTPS
Procedure: Binding Assay to Rat Kidney Medullary V2 Receptors
Medullary tissues from rat kidneys are dissected out, cut into small pieces and soaked in a […] sodium chloride solution containing 1.0 mM EDTA with many changes of the liquid phase, until the solution is clear of blood. The tissue is homogenized in a 0.25M sucrose solution containing 1.0 mM EDTA and 0.1 mM PMSF using a Potter-Elvehjem homogenizer with a teflon pestle. The homogenate is filtered through several layers (4 layers) of cheese cloth. The filtrate is rehomogenized using a dounce homogenizer, with a tight fitting pestle. The final homogenate is centrifuged at 1500× g for 15 min. The nuclear pellet is discarded and the supernatant fluid recentrifuged at 40,000× g for 30 min. The resulting pellet formed contains a dark inner part with the exterior., slightly pink. The pink outer part is suspended in a small amount of 50.0 mM Tris. HCl buffer, pH 7.4. The protein content is determined by the Lowry's method (Lowry et al., J. Biol. Chem., 1953). The membrane suspension is stored at -70° C. in 50.0 mM Tris HCl, containing 0.2% inactivated BSA and 0.1 mM PMSF in aliquots of 1.0 ml containing 10.0 mg protein per ml of suspension until use in subsequent binding experiments.
(§1) The plates are left undisturbed on the bench top for 120 min to reach equilibrium. Non-specific binding is assessed in the presence of 1.0 μM of unlabeled ligand, added in 20 μl volume. For test compounds, these are solubilized in 50% dimethylsulfoxide (DMSO) and added in 20.0 μl volume to a final incubation volume of 200 μl. Upon completion of binding, the content of each well is filtered off, using a Brandel® cell Harvester (Gaithersburg, Md.). The radioactivity trapped on the filter disk by the ligand-receptor complex is assessed by liquid scintillation counting in a Packard LS Counter, with an efficiency of 65% for tritium. The data are analyzed for IC50 values by the LUNDON-2 program for competition (LUNDON SOFTWARE, Ohio).

[2] = tested on: Vasopressin V1; test: Vasopressin V1 Antagonist Activity in Conscious Rats (vasopressin vasopressor response); format: in vivo, rat; set-up: Average Change: unit not given here; conditions: for % Inhibition / Average Change: SHR; for Max. % Inhibition / Time (of max. % inhibition): 30 mg/kg i.v.
Summary of the method: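 Conscious rats are restrained supine, and under local 2% procaine a PE 10/20 cannula is passed through the ventral caudal tail artery into the lower abdominal aorta. The caudal vein is cannulated for intravenous dosing. Blood pressure is recorded with a Statham P23Db transducer, and vasopressin injections are repeated after compound dosing. Percent antagonism is calculated against the pre-drug vasopressor response taken as 100%.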

[3] = biological target: T2, Rat Hepatic V1 Receptors (Rattus norvegicus, UniProt P30560); test: Binding Assay to Rat Hepatic V1 Receptors; conditions: for IC50: rat liver membranes, read-out: V1 IC50; for inhibition at 10 µM: 2 h, rat
T2 construct: Rat liver plasma membranes expressing the vasopressin V1 receptor subtypes; from tissue; host or cells: rat liver plasma membranes
T2 sequence (P30560 whole entry): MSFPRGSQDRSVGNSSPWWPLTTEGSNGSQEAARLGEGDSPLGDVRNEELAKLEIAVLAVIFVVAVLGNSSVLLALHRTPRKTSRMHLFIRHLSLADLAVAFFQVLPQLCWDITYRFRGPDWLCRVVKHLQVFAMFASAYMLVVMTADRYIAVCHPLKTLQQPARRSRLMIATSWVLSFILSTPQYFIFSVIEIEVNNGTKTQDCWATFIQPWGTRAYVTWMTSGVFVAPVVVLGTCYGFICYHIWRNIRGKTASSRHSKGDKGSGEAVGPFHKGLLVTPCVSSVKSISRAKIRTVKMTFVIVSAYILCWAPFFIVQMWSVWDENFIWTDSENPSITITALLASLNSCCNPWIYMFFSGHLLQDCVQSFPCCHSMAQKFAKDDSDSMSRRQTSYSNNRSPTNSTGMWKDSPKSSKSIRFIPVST
Procedure: Binding Assay to Rat Hepatic V1 Receptors
Rat liver plasma membranes expressing the vasopressin V1 receptor subtypes are isolated by sucrose density gradient according to the method described by Lesko et al., (1973). These membranes are quickly suspended in 50.0 mM Tris.HCl buffer, pH 7.4, containing 0.2% bovine serum albumin (BSA) and 0.1 mM phenylmethylsulfonylfluoride (PMSF) and kept frozen at -70° C. until used in subsequent binding experiments. For binding experiments, the following is added to the wells of a ninety-six well format microtiter plate: 100 μl of 100.0 mM Tris.HCl buffer containing 10.0 mM MgCl2, 0.2% heat inactivated BSA and a mixture of protease inhibitors: leupeptin, 1.0 mg %; aprotinin, 1.0 mg %; 1,10-phenanthroiine,2.0 mg %; trypsin inhibitor, 10.0 mg % and 0.1 mM PMSF, 20.0 μl of [phenylalanyl-3,4,5, -^3 H] vasopressin (S.A. 45.1 Ci/mmole) at 0.8 nM, and the reaction initiated by the addition of 80 μl of tissue membranes containing 20 μg of tissue protein. The plates are kept undisturbed on the bench top at room temperature for 120 min. to reach equilibrium. Non-specific samples are assayed in the presence of 0.1 μM of the unlabeled antagonist phenylalanylvasopressin, added in 20.0 μl volume.
as §1, with “For” for “The plates are left undisturbed on the bench top for 120 min to reach equilibrium. Non-specific binding is assessed in the presence of 1.0 μM of unlabeled ligand, added in 20 μl volume. For”, “μl .” for “μl.”

[4] = 10 mg/kg i.v., VAS 0.01 i.u./kg, 30 min
[5] = 10 mg/kg i.v., VAS 0.02 i.u./kg, 30 min
[6] = 20 mg/kg i.v., VAS 0.01 i.u./kg, 60 min
[7] = 20 mg/kg i.v., VAS 0.01 i.u./kg, 90 min
[8] = 20 mg/kg i.v., VAS 0.01 i.u./kg, 120 min
[9] = 20 mg/kg i.v., VAS 0.01 i.u./kg, 180 min
[10] = 20 mg/kg i.v., VAS 0.01 i.u./kg, 240 min
[11] = 20 mg/kg i.v., VAS 0.01 i.u./kg, 300 min
[12] = 20 mg/kg i.v., VAS 0.02 i.u./kg, 60 min
[13] = 20 mg/kg i.v., VAS 0.02 i.u./kg, 90 min
[14] = 20 mg/kg i.v., VAS 0.02 i.u./kg, 120 min
[15] = 20 mg/kg i.v., VAS 0.02 i.u./kg, 180 min
[16] = 20 mg/kg i.v., VAS 0.02 i.u./kg, 240 min
[17] = 20 mg/kg i.v., VAS 0.02 i.u./kg, 300 min
[18] = 10 mg/kg i.v., VAS 0.01 i.u./kg, 60 min
[19] = 10 mg/kg i.v., VAS 0.01 i.u./kg, 90 min
[20] = 10 mg/kg i.v., VAS 0.01 i.u./kg, 120 min
[21] = 10 mg/kg i.v., VAS 0.01 i.u./kg, 180 min
[22] = 10 mg/kg i.v., VAS 0.01 i.u./kg, 240 min
[23] = 10 mg/kg i.v., VAS 0.01 i.u./kg, 300 min
[24] = 10 mg/kg i.v., VAS 0.02 i.u./kg, 60 min
[25] = 10 mg/kg i.v., VAS 0.02 i.u./kg, 90 min
[26] = 10 mg/kg i.v., VAS 0.02 i.u./kg, 120 min
[27] = 10 mg/kg i.v., VAS 0.02 i.u./kg, 180 min
[28] = 10 mg/kg i.v., VAS 0.02 i.u./kg, 240 min
[29] = 10 mg/kg i.v., VAS 0.02 i.u./kg, 300 min

SMILES: O=C(c1ccc(NS(=O)(=O)c2ccccc2Cl)cc1)N1Cc2cccn2Cc2ccccc21 [Example 488, 10-[4-[[(2-Chlorophenyl)sulfonyl]amino]benzoyl]-10,11-dihydro-5H-pyrrolo[2,1-c][1,4]benzodiazepine]
inhibition at 10 µM [1]: 87% | Max. % Inhibition [2]: 43% | Time (of max. % inhibition) [2]: 60 min | inhibition at 10 µM [3]: 96%

SMILES: Cc1ccccc1C(=O)N(C)c1ccc(C(=O)N2Cc3cccn3Cc3ccccc32)cc1 [Example 384, N-[4-(5H-Pyrrolo[2,1-c][1,4]benzodiazepin-10(11H)-ylcarbonyl)phenyl]-N-methyl-2-methylbenzamide]
IC50 [1]: 59 nM | % Inhibition [2, 4]: 62% | Average Change [2, 4]: 9 | % Inhibition [2, 18]: 62% | Average Change [2, 18]: 9 | % Inhibition [2, 19]: 49% | Average Change [2, 19]: 12 | % Inhibition [2, 20]: 55% | Average Change [2, 20]: 10.5 | % Inhibition [2, 21]: 53% | Average Change [2, 21]: 11 | % Inhibition [2, 22]: 53% | Average Change [2, 22]: 11 | % Inhibition [2, 23]: 49% | Average Change [2, 23]: 12 | % Inhibition [2, 5]: 61% | Average Change [2, 5]: 14.5 | % Inhibition [2, 24]: 72% | Average Change [2, 24]: 10.5 | % Inhibition [2, 25]: 58% | Average Change [2, 25]: 15.5 | % Inhibition [2, 26]: 69% | Average Change [2, 26]: 11.5 | % Inhibition [2, 27]: 64% | Average Change [2, 27]: 13.5 | % Inhibition [2, 28]: 59% | Average Change [2, 28]: 15 | % Inhibition [2, 29]: 54% | Average Change [2, 29]: 17 | IC50 [3]: 188 nM

SMILES: Cc1c(CC(=O)Nc2ccc(C(=O)N3Cc4cccn4Cc4ccccc43)cc2)sc2ccccc12 [Example 87]
inhibition at 10 µM [1]: 80% | % Inhibition [2, 4]: 20% | Average Change [2, 4]: 50 | % Inhibition [2, 5]: 14% | Average Change [2, 5]: 57 | % Inhibition [2, 6]: 77% | Average Change [2, 6]: 14.5 | % Inhibition [2, 7]: 61% | Average Change [2, 7]: 24.5 | % Inhibition [2, 8]: 58% | Average Change [2, 8]: 26 | % Inhibition [2, 9]: 58% | Average Change [2, 9]: 26.5 | % Inhibition [2, 10]: 54% | Average Change [2, 10]: 28.5 | % Inhibition [2, 11]: 52% | Average Change [2, 11]: 30 | % Inhibition [2, 12]: 51% | Average Change [2, 12]: 32.5 | % Inhibition [2, 13]: 50% | Average Change [2, 13]: 33.5 | % Inhibition [2, 14]: 47% | Average Change [2, 14]: 35.5 | % Inhibition [2, 15]: 44% | Average Change [2, 15]: 37.5 | % Inhibition [2, 16]: 38% | Average Change [2, 16]: 41 | % Inhibition [2, 17]: 27% | Average Change [2, 17]: 48.5 | inhibition at 10 µM [3]: 63%

More lines, main results first:

IC50 [1]: 377 nM | IC50 [3]: 2770 nM
SMILES: O=C(Nc1ccc(C(=O)N2Cc3cccn3Cc3ccccc32)cc1)c1ccc2[nH]ccc2c1 [Example 117, N-[4-(5H-pyrrolo[2,1-c][1,4]benzodiazepin-10(11H)-ylcarbonyl)phenyl]-1H-indole-5-carboxamide]
% Inhibition [2, 4]: 1% | Average Change [2, 4]: 36 | % Inhibition [2, 5]: -12% | Average Change [2, 5]: 63 | % Inhibition [2, 6]: 1% | Average Change [2, 6]: 36 | % Inhibition [2, 7]: 38% | Average Change [2, 7]: 22.5 | % Inhibition [2, 8]: 37% | Average Change [2, 8]: 23 | % Inhibition [2, 9]: 27% | Average Change [2, 9]: 26.5 | % Inhibition [2, 10]: 32% | Average Change [2, 10]: 25 | % Inhibition [2, 11]: 29% | Average Change [2, 11]: 26 | % Inhibition [2, 12]: 29% | Average Change [2, 12]: 40 | % Inhibition [2, 13]: 19% | Average Change [2, 13]: 46 | % Inhibition [2, 14]: 33% | Average Change [2, 14]: 38 | % Inhibition [2, 15]: 19% | Average Change [2, 15]: 46 | % Inhibition [2, 16]: 28% | Average Change [2, 16]: 40.5 | % Inhibition [2, 17]: 25% | Average Change [2, 17]: 42.5

IC50 [1]: 740 nM | IC50 [3]: 420 nM
SMILES: O=C(Nc1ccc(C(=O)N2Cc3cccn3Cc3ccccc32)cc1)C1CCCO1 (centres unmarked) [Example 600, N-[4-(5H-Pyrrolo[2,1-c][1,4]benzodiazepin-10(11H)-ylcarbonyl)phenyl]tetrahydrofurane-2-carboxamide]
Max. % Inhibition [2]: 78% | Time (of max. % inhibition) [2]: 60 min

IC50 [1]: 77 nM | IC50 [3]: 45 nM
SMILES: CCOc1ccccc1C(=O)Nc1ccc(C(=O)N2Cc3cccn3Cc3ccccc32)cc1 [Example 84, N-[4-(5H-Pyrrolo[2,1-c][1,4]benzodiazepin-10(11H)-ylcarbonyl)phenyl]-2-ethoxybenzamide]
% Inhibition [2, 4]: 77% | Average Change [2, 4]: 10.5 | % Inhibition [2, 18]: 64% | Average Change [2, 18]: 16.5 | % Inhibition [2, 19]: 72% | Average Change [2, 19]: 13 | % Inhibition [2, 20]: 58% | Average Change [2, 20]: 19.5 | % Inhibition [2, 21]: 47% | Average Change [2, 21]: 24.5 | % Inhibition [2, 22]: 43% | Average Change [2, 22]: 26 | % Inhibition [2, 23]: 51% | Average Change [2, 23]: 22.5 | % Inhibition [2, 5]: 76% | Average Change [2, 5]: 14.5 | % Inhibition [2, 24]: 45% | Average Change [2, 24]: 33.5 | % Inhibition [2, 25]: 57% | Average Change [2, 25]: 26 | % Inhibition [2, 26]: 47% | Average Change [2, 26]: 32.5 | % Inhibition [2, 27]: 48% | Average Change [2, 27]: 31.5 | % Inhibition [2, 28]: 39% | Average Change [2, 28]: 37 | % Inhibition [2, 29]: 30% | Average Change [2, 29]: 43
